As a reminder, the IC50 is the concentration at which inhibition is half-maximal. High values mean lower potency, low ones higher potency.

Holding throughout (assay type): biochemical
Assay [1] addresses T1, aryl sulfatase A (ARSA) (Homo sapiens, UniProt P15289).
T1 construct: purchased R & D Systems
T1 sequence (P15289 19-507): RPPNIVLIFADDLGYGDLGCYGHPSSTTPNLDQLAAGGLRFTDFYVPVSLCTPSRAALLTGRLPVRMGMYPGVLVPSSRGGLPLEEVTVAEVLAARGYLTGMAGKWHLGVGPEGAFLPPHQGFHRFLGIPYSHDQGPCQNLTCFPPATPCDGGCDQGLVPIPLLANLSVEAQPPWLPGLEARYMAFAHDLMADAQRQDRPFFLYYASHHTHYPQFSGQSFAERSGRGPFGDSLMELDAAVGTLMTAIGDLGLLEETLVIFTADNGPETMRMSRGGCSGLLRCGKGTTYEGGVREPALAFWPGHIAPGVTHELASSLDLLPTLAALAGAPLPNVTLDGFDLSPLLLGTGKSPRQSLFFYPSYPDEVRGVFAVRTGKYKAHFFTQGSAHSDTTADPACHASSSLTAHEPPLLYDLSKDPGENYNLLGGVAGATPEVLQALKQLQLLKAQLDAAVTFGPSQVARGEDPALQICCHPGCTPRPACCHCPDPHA
The experiment in a line: ARSA inhibition assay with 4-MUS substrate. The conditions noted are these: for inhibition at 1000 µM: 1 mM compound, 4-MUS substrate, means of two or more determinations, read-out: ARSA% inh @ 1 mM. As to the method: (§1) Compounds were assayed for their ability to inhibit the Sulf-2-catalysed desulfation of 4-methylumbelliferyl sulfate (4-MUS) to the fluorescent 4-methylumbelliferone (MU). To determine their sulfatase selectivity, inhibition of aryl sulfatases A (ARSA) and B (ARSB) was also assessed. To date no suitable benchmark inhibitors of these sulfatase have been reported. […] In the majority of cases the presence of a substituent on the B-ring was detrimental to Sulf-2 inhibition when compared with unsubstituted biphenyl sulfamate 76. Aminosulfates 54 and 62 and carboxylic acid 15 retained potency. […] Compounds 8, 10, 15, 50 and 51 were also relatively potent ARSA inhibitors. […] Aminosulfates 56 and 63 were the best Sulf-2 inhibitors lacking a trichloroethylsulfamate group.
(§2) 1 – Biological assay protocols […]
(§3) Omega data analysis software.
(§4) ARSA and ARSB assay protocols
(§5) Compounds were screened in a 96-well black plate (Sterilin) using 4-MUS as a substrate, using 50 μL reaction mixture containing 40 ng of the commercially available enzymes (ARSA or ARSB from R & D Systems), 50 mM HEPES (pH = 4.5), 10 mM CaCl2, 1 mM test compound (dissolved in DMSO; final concentration of DMSO in reaction = 2%), and H2O (45 μL). The assay mixture was incubated for 1 h at 37 °C, followed by addition of 5 μL of 4-MUS (Km = 1.6 mM for ARSA and 612 μM for ARSB), and incubation for a further 1 h at 37 °C. The reaction was stopped with 100 μL of 1 M Tris (pH = 10.5) and read at 460 nm following excitation at 355 nm in FLUOstar Omega plate reader (BMG Labtech) using Omega data analysis software.

For assay [2], the target named is T2, aryl sulfatase B (ARSB) (Homo sapiens, UniProt P15848).
T2 construct: purchased R & D Systems
T2 sequence (P15848 37-533, species assumed): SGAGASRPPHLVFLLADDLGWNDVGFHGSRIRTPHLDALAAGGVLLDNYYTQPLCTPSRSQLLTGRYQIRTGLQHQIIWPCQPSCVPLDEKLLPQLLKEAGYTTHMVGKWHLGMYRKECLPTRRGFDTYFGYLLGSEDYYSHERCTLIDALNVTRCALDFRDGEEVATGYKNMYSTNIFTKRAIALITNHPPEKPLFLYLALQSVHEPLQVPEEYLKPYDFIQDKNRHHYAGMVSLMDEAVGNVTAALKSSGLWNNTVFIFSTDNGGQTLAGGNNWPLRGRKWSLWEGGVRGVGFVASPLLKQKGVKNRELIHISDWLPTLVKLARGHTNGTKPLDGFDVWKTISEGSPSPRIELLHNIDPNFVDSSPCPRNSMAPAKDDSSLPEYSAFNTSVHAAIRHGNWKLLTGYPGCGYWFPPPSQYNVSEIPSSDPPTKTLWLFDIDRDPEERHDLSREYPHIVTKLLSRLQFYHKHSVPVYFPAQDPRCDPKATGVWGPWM
The experiment in a line: ARSB inhibition assay with 4-MUS substrate. The conditions noted are these: for inhibition at 1000 µM: 1 mM compound, 4-MUS substrate, means of two or more determinations, read-out: ARSB% inh @ 1 mM; for IC50: non-linear regression, 7 inhibitor concentrations in duplicate, mean ± SEM. On the procedure:
as §1, §2, §3, §4, §5

The target of assay [3] is T3, Sulf-2 (Homo sapiens, UniProt Q8IWU5).
T3 construct: host or cells: 293T cells, transiently transfected
T3 sequence (Q8IWU5 25-870): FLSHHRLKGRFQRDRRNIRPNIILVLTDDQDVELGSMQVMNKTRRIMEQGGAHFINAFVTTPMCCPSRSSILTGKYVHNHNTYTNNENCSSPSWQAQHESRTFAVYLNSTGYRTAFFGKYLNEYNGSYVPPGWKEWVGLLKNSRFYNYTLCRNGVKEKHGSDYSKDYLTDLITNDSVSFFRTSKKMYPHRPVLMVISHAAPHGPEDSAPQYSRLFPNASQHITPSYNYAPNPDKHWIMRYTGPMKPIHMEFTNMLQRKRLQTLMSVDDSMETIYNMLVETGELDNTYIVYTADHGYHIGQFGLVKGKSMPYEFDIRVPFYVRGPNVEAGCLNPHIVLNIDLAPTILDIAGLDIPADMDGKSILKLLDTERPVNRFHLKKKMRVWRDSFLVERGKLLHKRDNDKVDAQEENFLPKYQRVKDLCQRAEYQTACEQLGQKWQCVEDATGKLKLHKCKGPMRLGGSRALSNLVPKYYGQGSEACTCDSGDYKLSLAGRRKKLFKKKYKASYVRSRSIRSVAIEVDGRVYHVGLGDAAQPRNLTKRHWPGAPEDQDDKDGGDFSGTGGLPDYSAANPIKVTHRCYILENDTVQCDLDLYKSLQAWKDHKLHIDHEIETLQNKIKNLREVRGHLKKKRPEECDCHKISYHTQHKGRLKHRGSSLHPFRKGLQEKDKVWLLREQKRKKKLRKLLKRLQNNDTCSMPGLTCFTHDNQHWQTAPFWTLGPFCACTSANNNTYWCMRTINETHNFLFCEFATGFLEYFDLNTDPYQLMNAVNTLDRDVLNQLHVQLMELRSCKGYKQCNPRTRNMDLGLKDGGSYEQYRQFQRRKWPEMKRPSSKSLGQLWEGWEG
The experiment in a line: Inhibition of Sulf-2-catalysed desulfation of 4-MUS to fluorescent MU. Particulars: for inhibition at 1000 µM: 1 mM compound, 4-MUS substrate, means of two or more determinations, read-out: Sulf-2% inh @ 1 mM; for IC50: non-linear regression, 7 inhibitor concentrations in duplicate, mean ± SEM. On the procedure:
as §1
1 – Biological assay protocols
Compounds were screened using 4-MUS as a substrate for Sulf-2 according to a protocol described by Morimoto-Tomita et al.1 Briefly 293T cells were transiently transfected with pcDNA3.1/Myc-His(-)-HSulf-2 DNA (Addgene) and TransIT-LT1 Transfection Reagent (Mirus) using a transfection mixture at the ratio 1:3 (µg DNA:
µL transfection reagent) in Opti-MEM I reduced serum medium (Gibco). Conditioned medium containing Sulf-2 was collected after 3 days and bound to HIS-Select Nickel affinity gel (Sigma) overnight at 4 °C. Beads were washed three times with washing buffer containing 50 mM HEPES (pH 7.5), 300 mM NaCl, 0.05% Tween 20, followed by washing once with washing buffer containing no tween. Beads were suspended in 50 mM Hepes (pH 7.5) and used in inhibition assays. 20 μL of bead slurry was incubated with 1 mM compound (in DMSO) plus 10X reaction buffer (500 mM HEPES pH 7.5, 100 mM CaCl2) for 1 h at 37 °C. The reaction was started by the addition of 20 μL of 20 mM 4-MUS (final concentration of 8 mM) and incubated at 37 °C for 1 h. The reaction was stopped with 100 μL 1 M Tris buffer (pH 10.4) and read at 460 nm following excitation at 355 nm in FLUOstar Omega plate reader (BMG Labtech) using Omega data analysis software. […]

`NS(=O)(=O)Oc1cccc(Oc2cccc(C(=O)O)c2)c1` [Compound 74]: the inhibition at 1000 µM in assay [1] is 49%; in assay [2], 0%; in assay [3] it was 30%.
Taken in the same sequence, the figures for `NS(=O)(=O)Oc1cccc(Oc2ccc(C(=O)O)cc2)c1` [Compound 75] were 33%, 0% and 23%.
In the same order, the values of `NS(=O)(=O)Oc1cccc(-c2ccccc2)c1` [Compound 76] are 14%, 65% and 38%.
As for `O=S(=O)(Nc1cccc(-c2ccccc2)c1)OCC(Cl)(Cl)Cl` [Compound 79], the inhibition at 1000 µM was found to be 0% in assay [1], 61% in assay [2] and 100% in assay [3]. Also, the “ARSA IC50” value in assay [1] (non-linear regression, 7 inhibitor concentrations in duplicate, mean ± SEM) was “No inhibition”. For the same compound, the IC50 is 30 ± 11 µM in assay [2] and 254 ± 3 µM in assay [3].
In the case of `O=S(=O)(Nc1cccc(Oc2ccccc2)c1)OCC(Cl)(Cl)Cl` [Compound 80], the results for the inhibition at 1000 µM in assay [1], in assay [2] and in assay [3] were 74%, 99% and 99%, respectively. For the same compound, the “ARSA inhibition over concentration range” value in assay [1] (concentration range 0.025–1 mM, IC50 could not be determined) was “Concentration-dependent inhibition was not observed”. The IC50 is 34 ± 9 µM in assay [2] and 298 ± 3 µM in assay [3].
Take `O=S(=O)(OCC(Cl)(Cl)Cl)Oc1cccc(-c2ccccc2)c1` [Compound 81]: the values for the inhibition at 1000 µM in assay [1], in assay [2] and in assay [3] were 70%, 85% and 1%, respectively.
Taken in the same sequence, the figures for `O=S(=O)(Nc1cccc(-c2ccccc2)c1)OCC(F)(F)F` [Compound 82] were 78%, 92% and 5%.
For `O=S(=O)(Nc1ccccc1)OCC(Cl)(Cl)Cl` [Compound 83], the inhibition at 1000 µM in assay [1] is 63%; in assay [2], 68%; in assay [3] it was 3%.

(Values after paper PMC5477036, “Design and synthesis of biphenyl and biphenyl ether inhibitors of sulfatases” (Chemical Science, 2016).)
